Source: ChEMBL document CHEMBL4325863, “Investigating alkyl nitrates as nitric oxide releasing precursors of multitarget acetylcholinesterase-monoamine oxidase B inhibitors” (Eur J Med Chem, 2019)
Active and inactive are the calls of the source. No cut-off for these calls is given here.

Tests used:
[1] = target: T1, Amine oxidase [flavin-containing] A (Homo sapiens, UniProt P21397); assay: Inhibition of recombinant human MAO-A expressed in baculovirus infected insect cell microsomes at 10 uM using kynuramine as substrate measured after 30 mins by fluorescence based assay relative to control; conditions: 0.5 h
T1 sequence (P21397 whole entry): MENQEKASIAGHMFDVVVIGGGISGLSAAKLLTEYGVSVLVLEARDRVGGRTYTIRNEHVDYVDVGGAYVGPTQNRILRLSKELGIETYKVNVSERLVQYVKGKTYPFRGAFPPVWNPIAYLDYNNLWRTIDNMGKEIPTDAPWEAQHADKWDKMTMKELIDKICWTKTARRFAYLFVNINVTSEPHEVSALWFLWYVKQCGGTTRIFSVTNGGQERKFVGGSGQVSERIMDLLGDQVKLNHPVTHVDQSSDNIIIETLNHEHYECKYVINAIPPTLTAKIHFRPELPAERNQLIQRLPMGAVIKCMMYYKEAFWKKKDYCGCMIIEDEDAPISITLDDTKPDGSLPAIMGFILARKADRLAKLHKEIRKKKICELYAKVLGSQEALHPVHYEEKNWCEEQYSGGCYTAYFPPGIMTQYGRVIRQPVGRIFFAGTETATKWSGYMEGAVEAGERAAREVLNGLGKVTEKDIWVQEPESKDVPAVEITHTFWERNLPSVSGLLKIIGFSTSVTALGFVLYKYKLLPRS

[2] = target: T2, Amine oxidase [flavin-containing] B (Homo sapiens, UniProt P27338); assay: Inhibition of recombinant human MAO-B expressed in baculovirus infected insect cell microsomes at 10 uM using kynuramine as substrate measured after 30 mins by fluorescence based assay relative to control; conditions: 0.5 h
T2 sequence (P27338 whole entry): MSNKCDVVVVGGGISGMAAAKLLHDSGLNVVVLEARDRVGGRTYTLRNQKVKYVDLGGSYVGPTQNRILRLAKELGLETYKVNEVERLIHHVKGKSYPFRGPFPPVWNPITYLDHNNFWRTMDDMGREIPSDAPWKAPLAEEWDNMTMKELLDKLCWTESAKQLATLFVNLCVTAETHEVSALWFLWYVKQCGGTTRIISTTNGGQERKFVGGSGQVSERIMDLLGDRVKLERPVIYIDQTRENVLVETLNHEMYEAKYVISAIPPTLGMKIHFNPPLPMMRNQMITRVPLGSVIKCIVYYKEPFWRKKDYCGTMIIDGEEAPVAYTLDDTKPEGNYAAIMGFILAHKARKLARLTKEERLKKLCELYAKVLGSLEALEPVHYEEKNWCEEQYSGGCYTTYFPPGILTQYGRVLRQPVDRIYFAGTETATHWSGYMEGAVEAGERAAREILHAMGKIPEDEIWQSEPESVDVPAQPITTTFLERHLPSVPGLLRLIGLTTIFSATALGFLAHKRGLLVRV

[3] = target: T2, Amine oxidase [flavin-containing] B; assay: Inhibition of recombinant human MAO-B expressed in baculovirus infected insect cell microsomes at 10 uM using kynuramine as substrate measured after 30 mins by spectrophotometric assay relative to control; conditions: 0.5 h
[4] = target: Acetylcholinesterase (Electrophorus electricus) (UniProt O42275); assay: Inhibition of electric eel AChE at 10 uM using acetylthiocholine iodide as substrate by Ellman's method relative to control
[5] = target: Cholinesterase (Equus caballus) (UniProt P81908); assay: Inhibition of equine serum BuChE at 10 uM using butyrylthiocholine iodide as substrate by Ellman's method relative to control
[6] = target: T1, Amine oxidase [flavin-containing] A; assay: Inhibition of recombinant human MAO-A expressed in baculovirus infected insect cell microsomes using kynuramine as substrate measured after 30 mins by fluorescence based assay
[7] = target: T2, Amine oxidase [flavin-containing] B; assay: Inhibition of recombinant human MAO-B expressed in baculovirus infected insect cell microsomes using kynuramine as substrate measured after 30 mins by fluorescence based assay
[8] = Drug metabolism in PBS buffer assessed as nitric oxide release at 150 uM in presence of cysteine by Griess reagent based UV-Visible spectrophotometric method; conditions: TDE = time-dependent effect
Acetylcholinesterase = Acetylcholinesterase (Homo sapiens, UniProt P22303); assay: Inhibition of human recombinant AChE using acetylthiocholine iodide as substrate by Ellman's method
Cholinesterase = Cholinesterase (Homo sapiens, UniProt P06276); assay: Inhibition of human serum BuChE using butyrylthiocholine iodide as substrate by Ellman's method
[9] = Drug metabolism in pH 7.4 PBS buffer assessed as 7-({1-[3-(3-Hydroxypropoxy)benzyl]piperidin-4-yl}methoxy)-3,4-dimethyl-2H-chromen-2-one formation at 100 uM up to 30 hrs by RP-HPLC method
[10] = Half life in human serum at 100 uM by RP-HPLC method; assay type: ADME, cell-free
[11] = Drug metabolism in pH 7.4 PBS buffer assessed as 7-({1-[3-(3-Hydroxypropoxy)benzyl]piperidin-4-yl}methoxy)-3,4-dimethyl-2H-chromen-2-one formation at 100 uM up to 30 hrs in presence of cysteine by RP-HPLC method
[12] = Drug metabolism in pH 7.4 PBS buffer assessed as 7-({1-[3-(3-Hydroxypropoxy)benzyl]piperidin-4-yl}methoxy)-3,4-dimethyl-2H-chromen-2-one formation at 100 uM up to 30 hrs in presence of glutathione by RP-HPLC method
[13] = Drug metabolism in pH 7.4 PBS buffer at 100 uM after 24 hrs in presence of cysteine by RP-HPLC method
[14] = Drug metabolism in pH 7.4 PBS buffer at 100 uM after 24 hrs in presence of glutathione by RP-HPLC method
[15] = Drug metabolism in pH 7.4 PBS buffer at 100 uM after 24 hrs by RP-HPLC method
SH-SY5Y = assay: Neuroprotection against rotenone/H2O2-induced cell death in human SH-SY5Y cells assessed as increase in cell viability at 0.1 to […] preincubated for 24 hrs followed by rotenone/H2O2 addition measured after 24 hrs by MTT assay; assay type: functional, cell-based

Sequence of Acetylcholinesterase (Electrophorus electricus) (O42275 24-633 limits assumed): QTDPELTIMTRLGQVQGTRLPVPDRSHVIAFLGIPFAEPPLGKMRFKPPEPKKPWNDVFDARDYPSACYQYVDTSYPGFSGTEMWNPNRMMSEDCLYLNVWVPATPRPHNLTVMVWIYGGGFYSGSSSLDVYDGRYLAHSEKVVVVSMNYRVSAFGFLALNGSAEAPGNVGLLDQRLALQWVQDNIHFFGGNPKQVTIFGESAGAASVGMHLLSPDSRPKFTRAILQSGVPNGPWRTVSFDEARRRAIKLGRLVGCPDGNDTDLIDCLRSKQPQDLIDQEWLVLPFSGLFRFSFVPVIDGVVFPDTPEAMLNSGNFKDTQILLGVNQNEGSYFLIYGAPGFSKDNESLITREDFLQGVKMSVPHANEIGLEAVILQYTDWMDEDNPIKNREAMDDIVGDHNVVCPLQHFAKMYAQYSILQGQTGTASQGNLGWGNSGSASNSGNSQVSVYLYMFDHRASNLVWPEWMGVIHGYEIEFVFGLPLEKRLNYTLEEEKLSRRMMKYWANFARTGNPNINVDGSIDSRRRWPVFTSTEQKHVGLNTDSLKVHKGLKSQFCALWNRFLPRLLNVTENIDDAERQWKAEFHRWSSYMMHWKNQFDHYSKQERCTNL
Sequence of Cholinesterase (P06276 whole entry): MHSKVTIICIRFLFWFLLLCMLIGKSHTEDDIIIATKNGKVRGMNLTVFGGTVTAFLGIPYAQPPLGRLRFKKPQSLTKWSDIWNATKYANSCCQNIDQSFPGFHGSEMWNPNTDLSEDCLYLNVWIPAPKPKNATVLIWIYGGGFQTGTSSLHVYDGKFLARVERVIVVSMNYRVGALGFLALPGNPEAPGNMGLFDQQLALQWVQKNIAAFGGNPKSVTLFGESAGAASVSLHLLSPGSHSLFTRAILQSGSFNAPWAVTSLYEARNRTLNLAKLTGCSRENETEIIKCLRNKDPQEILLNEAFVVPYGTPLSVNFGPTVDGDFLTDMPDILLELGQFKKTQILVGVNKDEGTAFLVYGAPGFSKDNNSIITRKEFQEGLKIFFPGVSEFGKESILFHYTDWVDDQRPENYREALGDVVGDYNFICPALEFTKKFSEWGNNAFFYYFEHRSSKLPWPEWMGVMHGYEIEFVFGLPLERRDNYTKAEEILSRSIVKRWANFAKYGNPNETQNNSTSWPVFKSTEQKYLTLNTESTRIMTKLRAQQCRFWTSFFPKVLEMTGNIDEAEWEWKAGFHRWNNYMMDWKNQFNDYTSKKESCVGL
Sequence of Acetylcholinesterase (P22303 whole entry): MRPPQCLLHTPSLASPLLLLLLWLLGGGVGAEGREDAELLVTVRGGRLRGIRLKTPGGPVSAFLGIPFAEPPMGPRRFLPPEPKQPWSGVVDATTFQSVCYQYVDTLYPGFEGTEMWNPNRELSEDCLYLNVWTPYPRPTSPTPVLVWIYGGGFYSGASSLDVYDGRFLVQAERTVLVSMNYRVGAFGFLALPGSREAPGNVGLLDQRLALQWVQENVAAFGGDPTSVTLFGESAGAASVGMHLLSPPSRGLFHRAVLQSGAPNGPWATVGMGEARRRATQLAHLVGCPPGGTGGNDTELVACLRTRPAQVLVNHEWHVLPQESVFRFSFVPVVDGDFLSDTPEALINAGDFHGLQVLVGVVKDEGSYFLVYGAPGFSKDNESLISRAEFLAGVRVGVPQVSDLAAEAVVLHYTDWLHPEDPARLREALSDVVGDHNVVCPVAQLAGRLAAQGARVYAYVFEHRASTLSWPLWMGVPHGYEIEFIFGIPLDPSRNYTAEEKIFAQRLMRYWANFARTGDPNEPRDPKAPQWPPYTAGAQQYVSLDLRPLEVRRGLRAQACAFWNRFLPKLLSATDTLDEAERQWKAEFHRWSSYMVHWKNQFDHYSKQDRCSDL
Sequence of Cholinesterase (Equus caballus) (P81908 whole entry): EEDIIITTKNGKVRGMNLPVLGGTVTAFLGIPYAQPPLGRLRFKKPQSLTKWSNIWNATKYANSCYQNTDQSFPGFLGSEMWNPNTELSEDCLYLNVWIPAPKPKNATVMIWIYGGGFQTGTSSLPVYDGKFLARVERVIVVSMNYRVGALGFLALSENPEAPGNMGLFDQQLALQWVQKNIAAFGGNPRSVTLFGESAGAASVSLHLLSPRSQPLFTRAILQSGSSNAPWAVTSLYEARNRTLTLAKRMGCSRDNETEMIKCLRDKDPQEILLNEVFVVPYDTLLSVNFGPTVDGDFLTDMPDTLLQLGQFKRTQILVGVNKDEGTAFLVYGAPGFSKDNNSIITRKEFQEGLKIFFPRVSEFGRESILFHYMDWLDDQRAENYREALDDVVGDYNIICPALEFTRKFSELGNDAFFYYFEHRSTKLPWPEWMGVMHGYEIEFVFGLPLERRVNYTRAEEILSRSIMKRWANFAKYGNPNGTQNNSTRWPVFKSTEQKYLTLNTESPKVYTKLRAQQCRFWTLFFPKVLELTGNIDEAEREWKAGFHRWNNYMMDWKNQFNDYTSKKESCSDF

Compound: O=c1ccc2ccc(OCC3CCN(CCCO)CC3)cc2o1
- inhibition at 10 µM [1]: 26%
- inhibition at 10 µM [2]: 48%
- inhibition at 10 µM [3]: 39%
- inhibition [4]: 38%
- inhibition [5]: 26%

Compound: Cc1c(C)c2ccc(OCC3CCN(Cc4cccc(OCCCO[N+](=O)[O-])c4)CC3)cc2oc1=O
- IC50 [6]: 1200 nM
- IC50 [7]: 550 nM
- Drug metabolism [8]: Tde
- IC50 (Acetylcholinesterase): 480 nM
- IC50 (Cholinesterase): 800 nM
- Drug metabolism [9]: Metabolite detected
- half-life at 100 µM [10]: 19.1 days
- Drug metabolism [11]: Metabolite not detected
- Drug metabolism [12]: Metabolite not detected
- Drug metabolism [13]: > 50%
- Drug metabolism [14]: > 50%
- Drug metabolism [15]: > 50%

Compound: COc1cc2c(cc1OC)C(=O)C(CC1CCN(Cc3ccccc3)CC1)C2 (stereo not drawn)
- Activity (SH-SY5Y): Active
